The supplement of paper PMC11061612

Legend:
[1] = system: NCI-H211 (Small Cell Lung Carcinoma); assay: Bliss excess, mean over the matrix (fraction); higher = more synergy
Procedure, shortened: (§1)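 After 24 hours at 37°C and 5% CO2 in 1536-well plates, cells in DMEM/F12 or RPMI plus 10% FBS received two-drug dose matrices for 72 hours. Viability came from CellTiter-Glo 2.0 luminescence and was scaled as inhibition, anchored at 0 by vehicle wells and at 1 by blank wells. Combination Emax is taken as the second-highest inhibition in the matrix, and Bliss excess as the observed combination effect less EA + EB − EA·EB, with EA and EB the single-agent effects.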

[2] = system: KATOIII (Gastric Carcinoma); assay: combination Emax (second highest fraction inhibited in the dose matrix, 72 h); higher = more inhibition; extreme values may be limits of the assay
Procedure, shortened: as §1

[3] = system: NCI-H211 (Small Cell Lung Carcinoma); assay: as above
Procedure, shortened: as §1

ES7 (Ewing's Sarcoma) = assay: as above
Procedure, shortened: as §1
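Wherever Bliss excess, mean over the matrix is given: after 72 h of two-drug dosing.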

SMILES | Bliss excess [1] | combination Emax [2] | combination Emax [3] | combination Emax (ES7 (Ewing's Sarcoma))
Cn1cnc2c(F)c(Nc3ccc(Br)cc3Cl)c(C(=O)NOCCO)cc21 [Selumetinib] + CCN(CCO)CCCOc1ccc2c(Nc3cc(CC(=O)Nc4cccc(F)c4)[nH]n3)ncnc2c1 [AZD2811] (first compound max 10 µM, 7x7, partner max 1 µM) | -0.0446 | 0.429 | 0.938 | 0.792
Cc1nc(Nc2ncc(C(=O)Nc3c(C)cccc3Cl)s2)cc(N2CCN(CCO)CC2)n1 [Dasatinib] + CC(=O)Nc1cccc(-n2c(=O)n(C3CC3)c(=O)c3c(Nc4ccc(I)cc4F)n(C)c(=O)c(C)c32)c1 [Trametinib] (first compound max 2 µM, 7x7, partner max 1 µM) | 0.0556 | 0.629 | 0.456 | 0.294
NC1(C(=O)N[C@@H](CCO)c2ccc(Cl)cc2)CCN(c2ncnc3[nH]ccc23)CC1 [Capivasertib] + CC(=O)c1c(C)c2cnc(Nc3ccc(N4CCNCC4)cn3)nc2n(C2CCCC2)c1=O [Palbociclib] (first compound max 10 µM, 7x7, partner max 10 µM) | 0.0926 | 0.311 | 0.59 | 0.655
COc1nnc2ccc(N3CCC(c4ccc(OCCN5CCN(C)C(=O)[C@H]5C)cc4)CC3)nn12 [AZD5153] + C=CCn1c(=O)c2cnc(Nc3ccc(N4CCN(C)CC4)cc3)nc2n1-c1cccc(C(C)(C)O)n1 [AZD1775] (first compound max 1 µM, partner max 1 µM) | -0.0008 | 0.473 | 0.993 | 0.795
COc1nnc2ccc(N3CCC(c4ccc(OCCN5CCN(C)C(=O)[C@H]5C)cc4)CC3)nn12 [AZD5153] + CC1(C)CCC(CN2CCN(c3ccc(C(=O)NS(=O)(=O)c4ccc(NCC5CCOCC5)c([N+](=O)[O-])c4)c(Oc4cnc5[nH]ccc5c4)c3)CC2)=C(c2ccc(Cl)cc2)C1 [Venetoclax] (first compound max 1 µM, 7x7, partner max 1 µM) | 0.03 | 0.337 | 1 | 0.565
C[C@@H](c1ccc2nccn2c1)n1nnc2ncc(-c3cnn(C)c3)nc21 [Savolitinib] + CC1(C)CCC(CN2CCN(c3ccc(C(=O)NS(=O)(=O)c4ccc(NCC5CCOCC5)c([N+](=O)[O-])c4)c(Oc4cnc5[nH]ccc5c4)c3)CC2)=C(c2ccc(Cl)cc2)C1 [Venetoclax] (first compound max 1 µM, 7x7, partner max 1 µM) | 0.0317 | 0.337 | 0.744 | 0.177
NC1(C(=O)N[C@@H](CCO)c2ccc(Cl)cc2)CCN(c2ncnc3[nH]ccc23)CC1 [Capivasertib] + CCN(CCO)CCCOc1ccc2c(Nc3cc(CC(=O)Nc4cccc(F)c4)[nH]n3)ncnc2c1 [AZD2811] (first compound max 10 µM, 7x7, partner max 1 µM) | -0.0107 | 0.295 | 0.944 | 0.86
COc1nnc2ccc(N3CCC(c4ccc(OCCN5CCN(C)C(=O)[C@H]5C)cc4)CC3)nn12 [AZD5153] + Cn1cnc2c(F)c(Nc3ccc(Br)cc3Cl)c(C(=O)NOCCO)cc21 [Selumetinib] (first compound max 1 µM, 7x7, partner max 10 µM) | 0.0477 | 0.424 | 1 | 0.549
COc1nnc2ccc(N3CCC(c4ccc(OCCN5CCN(C)C(=O)[C@H]5C)cc4)CC3)nn12 [AZD5153] + C[C@@H]1COCCN1C2=NC(=NC(=C2)C3(CC3)[S@](=N)(=O)C)C4=C5C=CNC5=NC=C4 [AZD6738] (first compound max 1 µM, 7x7, partner max 10 µM) | -0.008 | 0.553 | 1 | 0.952
COc1nnc2ccc(N3CCC(c4ccc(OCCN5CCN(C)C(=O)[C@H]5C)cc4)CC3)nn12 [AZD5153] + Cc1c2c(nn1C)CSCc1cc(n(C)n1)CSc1cc(c3ccccc3c1)OCCCc1c(C(=O)O)n(C)c3c-2c(Cl)ccc13 [AZD5991] (first compound max 1 µM, 7x7, partner max 1 µM) | -0.0175 | 0.324 | 1 | 0.928
NC1(C(=O)N[C@@H](CCO)c2ccc(Cl)cc2)CCN(c2ncnc3[nH]ccc23)CC1 [Capivasertib] + COc1nnc2ccc(N3CCC(c4ccc(OCCN5CCN(C)C(=O)[C@H]5C)cc4)CC3)nn12 [AZD5153] (first compound max 10 µM, 7x7, partner max 1 µM) | -0.0113 | 0.201 | 1 | 0.811
COc1nnc2ccc(N3CCC(c4ccc(OCCN5CCN(C)C(=O)[C@H]5C)cc4)CC3)nn12 [AZD5153] + CCN(CCO)CCCOc1ccc2c(Nc3cc(CC(=O)Nc4cccc(F)c4)[nH]n3)ncnc2c1 [AZD2811] (first compound max 1 µM, 7x7, partner max 1 µM) | -0.0081 | 0.31 | 1 | 0.884
Cn1cnc2c(F)c(Nc3ccc(Br)cc3Cl)c(C(=O)NOCCO)cc21 [Selumetinib] + C[C@@H]1COCCN1C2=NC(=NC(=C2)C3(CC3)[S@](=N)(=O)C)C4=C5C=CNC5=NC=C4 [AZD6738] (first compound max 10 µM, 7x7, partner max 10 µM) | -0.0285 | 0.415 | 0.606 | 0.777
NC1(C(=O)N[C@@H](CCO)c2ccc(Cl)cc2)CCN(c2ncnc3[nH]ccc23)CC1 [Capivasertib] + CC(C)n1c(=O)n(C)c2cnc3cc(F)c(-c4ccc(OCCCN5CCCCC5)nc4)cc3c21 [AZD1390] (first compound max 10 µM, 7x7, partner max 0.3 µM) | -0.0294 | 0.345 | 0.488 | 0.446
CS(=O)(=O)CCNCc1ccc(-c2ccc3ncnc(Nc4ccc(OCc5cccc(F)c5)c(Cl)c4)c3c2)o1 [Lapatinib] + C[C@@H](Oc1cc(-c2cnn(C3CCNCC3)c2)cnc1N)c1c(Cl)ccc(F)c1Cl [Crizotinib] (first compound max 10 µM, 7x7, partner max 10 µM) | -0.0329 | 0.627 | 0.948 | 0.927
Cn1cnc2c(F)c(Nc3ccc(Br)cc3Cl)c(C(=O)NOCCO)cc21 [Selumetinib] + C=CCn1c(=O)c2cnc(Nc3ccc(N4CCN(C)CC4)cc3)nc2n1-c1cccc(C(C)(C)O)n1 [AZD1775] (first compound max 10 µM, partner max 1 µM) | 0.0248 | 0.451 | 0.831 | 0.486
CC(=O)c1c(C)c2cnc(Nc3ccc(N4CCNCC4)cn3)nc2n(C2CCCC2)c1=O [Palbociclib] + CC1(C)CCC(CN2CCN(c3ccc(C(=O)NS(=O)(=O)c4ccc(NCC5CCOCC5)c([N+](=O)[O-])c4)c(Oc4cnc5[nH]ccc5c4)c3)CC2)=C(c2ccc(Cl)cc2)C1 [Venetoclax] (first compound max 10 µM, 7x7, partner max 1 µM) | 0.0694 | 0.358 | 0.965 | 0.644
Cn1cnc2c(F)c(Nc3ccc(Br)cc3Cl)c(C(=O)NOCCO)cc21 [Selumetinib] + CC(C)n1c(=O)n(C)c2cnc3cc(F)c(-c4ccc(OCCCN5CCCCC5)nc4)cc3c21 [AZD1390] (first compound max 10 µM, 7x7, partner max 0.3 µM) | -0.0015 | 0.475 | 0.239 | 0.14
NC1(C(=O)N[C@@H](CCO)c2ccc(Cl)cc2)CCN(c2ncnc3[nH]ccc23)CC1 [Capivasertib] + C[C@@H]1COCCN1C2=NC(=NC(=C2)C3(CC3)[S@](=N)(=O)C)C4=C5C=CNC5=NC=C4 [AZD6738] (first compound max 10 µM, 7x7, partner max 10 µM) | 0.0232 | 0.438 | 0.665 | 0.889
COc1cc2ncnc(Nc3ccc(F)c(Cl)c3)c2cc1OCCCN1CCOCC1 [Gefitinib] + CC(C)n1c(=O)n(C)c2cnc3cc(F)c(-c4ccc(OCCCN5CCCCC5)nc4)cc3c21 [AZD1390] (first compound max 10 µM, 7x7, partner max 0.3 µM) | -0.053 | 0.353 | 0.227 | 0.385
CC(=O)c1c(C)c2cnc(Nc3ccc(N4CCNCC4)cn3)nc2n(C2CCCC2)c1=O [Palbociclib] + Cc1c2c(nn1C)CSCc1cc(n(C)n1)CSc1cc(c3ccccc3c1)OCCCc1c(C(=O)O)n(C)c3c-2c(Cl)ccc13 [AZD5991] (first compound max 10 µM, 7x7, partner max 1 µM) | 0.118 | 0.406 | 0.905 | 0.714
NC1(C(=O)N[C@@H](CCO)c2ccc(Cl)cc2)CCN(c2ncnc3[nH]ccc23)CC1 [Capivasertib] + Cn1cnc2c(F)c(Nc3ccc(Br)cc3Cl)c(C(=O)NOCCO)cc21 [Selumetinib] (first compound max 10 µM, 7x7, partner max 10 µM) | 0.119 | 0.431 | 0.568 | 0.448
CC(=O)c1c(C)c2cnc(Nc3ccc(N4CCNCC4)cn3)nc2n(C2CCCC2)c1=O [Palbociclib] + Cn1cnc2c(F)c(Nc3ccc(Br)cc3Cl)c(C(=O)NOCCO)cc21 [Selumetinib] (first compound max 10 µM, 7x7, partner max 10 µM) | 0.0861 | 0.465 | 0.657 | 0.609
Cc1c2c(nn1C)CSCc1cc(n(C)n1)CSc1cc(c3ccccc3c1)OCCCc1c(C(=O)O)n(C)c3c-2c(Cl)ccc13 [AZD5991] + CC1(C)CCC(CN2CCN(c3ccc(C(=O)NS(=O)(=O)c4ccc(NCC5CCOCC5)c([N+](=O)[O-])c4)c(Oc4cnc5[nH]ccc5c4)c3)CC2)=C(c2ccc(Cl)cc2)C1 [Venetoclax] (first compound max 1 µM, 7x7, partner max 1 µM) |  | 0.101 |  | 0.893
CC1(C)CCC(CN2CCN(c3ccc(C(=O)NS(=O)(=O)c4ccc(NCC5CCOCC5)c([N+](=O)[O-])c4)c(Oc4cnc5[nH]ccc5c4)c3)CC2)=C(c2ccc(Cl)cc2)C1 [Venetoclax] + CN(C)CCCOc1ccc(-c2ccc3ncc4c(c3c2)n(C2CCOCC2)c(=O)n4C)cn1 [AZD0156] (first compound max 1 µM, 7x7, partner max 1 µM) |  | 0.154 |  | 0.925
Cc1c2c(nn1C)CSCc1cc(n(C)n1)CSc1cc(c3ccccc3c1)OCCCc1c(C(=O)O)n(C)c3c-2c(Cl)ccc13 [AZD5991] + Cc1cc2ncnn2cc1Nc1ncc2c(n1)n(C1CCOCC1)c(=O)n2C [AZD7648] (first compound max 1 µM, 7x7, partner max 10 µM) |  | 0.178 |  | 0.682
